Data as given in BindingDB's records for doi:10.1016/j.chembiol.2017.01.006 (Sanford Burnham Prebys Medical Discovery Institute, 2017).
Where a SMILES comes first, the peptide text is derived from it. [ ]: non-standard residue; d: D form. Trp(5-OH) = N[C@@H](Cc1c[nH]c2ccc(O)cc12)C(=O)O; Phe(4-Cl) = N[C@@H](Cc1ccc(Cl)cc1)C(=O)O; 4Pal = N[C@@H](Cc1ccncc1)C(=O)O; Ava = NCCCCC(=O)O; GABA = NCCCC(=O)O

Columns and labels:
[1] = target: T1, Ephrin type-A receptor 4 [29-209] (Homo sapiens, UniProt P54764); experiment: Fluorescence Polarization Assay; details: pH 7.2; 25 °C
T1 construct: 29-209
Method: For competitive binding assays, 1 mL of […] EphA4-LBD was pre-incubated with the tested compounds at various concentrations in 98 mL of PBS (pH 7.2) in 96-well black plates at roomtemperature for 10 min, after which 1 mL of 500 mMFITC-labeled EphA4 peptide was added to produce a final volume of […].

[2] = target: T1, Ephrin type-A receptor 4 [29-209]; experiment: Isothermal Titration Calorimetry (ITC); details: pH 6.5; 27 °C
Method: (§1) The purified EphA proteins (EphA4-LBD, EphA3-LBD, and EphA2-LBD) were dissolved in 50 mM potassium phosphate buffer (pH 6.5) containing 100 mM NaCl. Compound binding was detected at 27 °C by comparing either the 2D-[15N,1H]-HSQC or 2D-[13C,1H]-HSQC spectra of 50 mMEphA4-LBD in absence and presence of compounds at 50 mM. ITC were measured with Model ITC200 from Microcal/GE Life Sciences.

[3] = target: T2, Ephrin type-A receptor 3 [29-207] (Homo sapiens, UniProt P29320); experiment: Isothermal Titration Calorimetry (ITC); details: pH 6.5; 27 °C
T2 construct: 29-207
T2 sequence (P29320 whole entry): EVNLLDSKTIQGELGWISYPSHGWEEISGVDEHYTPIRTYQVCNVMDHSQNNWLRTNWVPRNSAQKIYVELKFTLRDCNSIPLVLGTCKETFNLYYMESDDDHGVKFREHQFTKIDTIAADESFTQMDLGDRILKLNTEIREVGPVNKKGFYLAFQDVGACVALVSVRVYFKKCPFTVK
Method: as §1

T1 sequence (P54764 29-209): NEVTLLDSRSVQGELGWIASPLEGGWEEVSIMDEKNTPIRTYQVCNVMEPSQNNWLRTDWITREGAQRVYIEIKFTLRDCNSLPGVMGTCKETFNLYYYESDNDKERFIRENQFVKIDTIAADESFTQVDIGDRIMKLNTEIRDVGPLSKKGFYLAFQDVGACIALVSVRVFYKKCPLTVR

SMILES | Ki [1] | Kd [2] | Kd [3]
NCCC(=O)N[C@@H](Cc1c[nH]c2ccc(O)cc12)C(=O)N[C@@H](Cc1ccc(Cl)cc1)C(=O)N[C@@H](Cc1ccncc1)C(=O)N[C@H](Cc1ccncc1)C(N)=O [120G1] | 14 µM |  | 
CC(C)(N)C(C)(C)C(=O)N[C@@H](Cc1c[nH]c2ccc(O)cc12)C(=O)N[C@@H](Cc1ccc(Cl)cc1)C(=O)N[C@@H](Cc1ccncc1)C(=O)N[C@H](Cc1ccncc1)C(N)=O [120G2] | > 100 µM |  | 
NCCCC(=O)N[C@@H](Cc1c[nH]c2ccc(O)cc12)C(=O)N[C@@H](Cc1ccc(Cl)cc1)C(=O)N[C@@H](Cc1ccncc1)C(=O)N[C@H](Cc1c[nH]c2ccccc12)C(N)=O [120H10] (H-[GABA][Trp(5-OH)][Phe(4-Cl)][4Pal][dW]-NH2) | 0.96 µM |  | 
NCCCCC(=O)N[C@@H](Cc1c[nH]c2ccc(O)cc12)C(=O)N[C@@H](Cc1ccc(Cl)cc1)C(=O)N[C@@H](Cc1ccncc1)C(=O)N[C@H](Cc1c[nH]c2ccccc12)C(N)=O [123B1] (H-[Ava][Trp(5-OH)][Phe(4-Cl)][4Pal][dW]-NH2) | 3.04 µM |  | 
NCCCC(=O)N[C@@H](Cc1c[nH]c2ccc(O)cc12)C(=O)N[C@@H](Cc1ccc(Cl)cc1)C(=O)N[C@@H](Cc1ccncc1)C(=O)NCCc1c[nH]c2ccccc12 [123C2] | 1.59 µM | 1.1 µM | 
NCCCC(=O)N[C@@H](Cc1c[nH]c2ccc(O)cc12)C(=O)N[C@@H](Cc1ccc(Cl)cc1)C(=O)N[C@@H](Cc1ccncc1)C(=O)NCCc1c[nH]c2ccc(F)cc12 [123C3] | 2.22 µM |  | 
COc1ccc2[nH]cc(CCNC(=O)[C@H](Cc3ccncc3)NC(=O)[C@H](Cc3ccc(Cl)cc3)NC(=O)[C@H](Cc3c[nH]c4ccc(O)cc34)NC(=O)CCCN)c2c1 [123C4] |  |  | 4.55 µM
NCCCC(=O)N[C@@H](Cc1c[nH]c2ccc(O)cc12)C(=O)N[C@@H](Cc1ccc(Cl)cc1)C(=O)N[C@@H](Cc1ccncc1)C(=O)NCCc1c[nH]c2ccc(O)cc12 [123C5] | 2.57 µM | 2.2 µM | 
NCCCC(=O)N[C@@H](Cc1c[nH]c2ccc(O)cc12)C(=O)N[C@@H](Cc1ccc(Cl)cc1)C(=O)N[C@@H](Cc1ccncc1)C(=O)NCCc1c[nH]c2ccc(Cl)cc12 [123C6] | 3.14 µM |  | 
COc1ccc2c(CCNC(=O)[C@H](Cc3ccncc3)NC(=O)[C@H](Cc3ccc(Cl)cc3)NC(=O)[C@H](Cc3c[nH]c4ccc(O)cc34)NC(=O)CCCN)c[nH]c2c1 [123C7] | 1.59 µM | 0.54 µM | 
NCCCC(=O)N[C@@H](Cc1c[nH]c2ccc(O)cc12)C(=O)N[C@@H](Cc1ccc(Cl)cc1)C(=O)N[C@@H](Cc1ccncc1)C(=O)NCCc1cccc2ccccc12 [123C12] | 7.67 µM |  | 
NCCC(=O)N[C@@H](Cc1c[nH]c2ccc(O)cc12)C(=O)N[C@@H](Cc1ccc(Cl)cc1)C(=O)N[C@@H](Cc1ccncc1)C(=O)N[C@H](Cc1c[nH]c2ccccc12)C(N)=O [EphA4-LBC inhibitor, Compound 22] | 2.14 µM | 1.2 µM | 
